The data set in a line: Pharmacokinetics in Male Beagle Dogs. Type of data set: in vivo. To be noted: free acid dosed orally at 5 mg/kg. The method, then: The pharmacokinetics of Compound 1 and Compound 2 was assessed in male Beagle dogs.
Dosing of male Beagle dogs (n=3) was performed. Compound 1 or Compound 2 was dosed intravenously at 2 mg/kg (fasted) and orally (fasted or non-fasted) at 5 mg/kg. In fasted animals, food was withheld a minimum of 12 hours prior to dosing and then returned 4 hours post-dose. Non-fasted animals were allowed to feed 1 hour prior to dosing ad libitum. Compound 2 capsules were given by oral gavage in the fasted state. Plasma samples were collected by Perry Scientific study personnel.
The capsules are noted in Table 25 below. Capsules were size 0 gelatin (Capsugel, Peapack, N.J.). Tablet formulations are noted in Example 24.
For the clinical drug product oral solution of active agent (1.67 mg/mL), sucralose (0.5% w/w) and cherry flavor (0.5% w/w) is added to the formulation as a sweetener and taste masking agent, respectively to a 0.5% methocel aqueous solution.
Blood samples (approximately 1 mL total blood) were taken from each dog at pre-dose, and an initial time of 5 or 15 min and then various time points up to 24 hours post-dose (10-11 samples per animal). Samples were collected on wet ice in tubes containing potassium EDTA. After each blood draw, the cannula was flushed with an equivalent volume of heparinized saline (0.1 mL at 40 units/mL). Plasma samples, prepared by centrifugation of whole blood, were stored frozen (−80° C.) prior to analysis.

The bioavailability is dose-corrected exposure relative to a reference, in per cent. Consider `Cc1noc(-c2ccc(-c3ccc(C4(C(=O)O)CC4)cc3)cc2)c1NC(=O)O[C@H](C)c1ccccc1` [Compound 1, 1-{4′-[3-methyl-4-((R)-1-phenyl-ethoxycarbonylamino)-isoxazol-5-yl]-biphenyl-4-yl}-cyclopropanecarboxylic acid], for which the exposure entry is listed as “reduced exposure”. Further, under “male, Beagle, dog, plasma, po, 5 mg/kg, read-out: apparent oral bioavailability”, the bioavailability stood at 19%.

For the origin of these results see US20170121295A1, “POLYCYCLIC LPA1 ANTAGONIST AND USES THEREOF” (AMIRA PHARMACEUTICALS, INC., priority 2010, published 2017).
